Where “and” joins values, the source holds several entries; their conditions need not be identical. Equal entries are not always repeated. Entries after “also recorded” stand apart in the source; their conditions may differ. Structures can show the parent of a compound that is named as a salt. Where two headings read alike, the source gives them in different places.
Legend:
[1] = target: T1, human GABA-A α2β3γ2 ion channels (Homo sapiens, UniProt P28472+P47869); experiment: Human GABA-A receptor IonFlux HT agonist assay (Cl-flux), α2β3γ2; assay type: cell-based; conditions: for Normalized Percentage Activation, Mean: hGABAA α2β3γ2
T1 construct: expressed in transfected cells
T1 sequence (P47869 29-451): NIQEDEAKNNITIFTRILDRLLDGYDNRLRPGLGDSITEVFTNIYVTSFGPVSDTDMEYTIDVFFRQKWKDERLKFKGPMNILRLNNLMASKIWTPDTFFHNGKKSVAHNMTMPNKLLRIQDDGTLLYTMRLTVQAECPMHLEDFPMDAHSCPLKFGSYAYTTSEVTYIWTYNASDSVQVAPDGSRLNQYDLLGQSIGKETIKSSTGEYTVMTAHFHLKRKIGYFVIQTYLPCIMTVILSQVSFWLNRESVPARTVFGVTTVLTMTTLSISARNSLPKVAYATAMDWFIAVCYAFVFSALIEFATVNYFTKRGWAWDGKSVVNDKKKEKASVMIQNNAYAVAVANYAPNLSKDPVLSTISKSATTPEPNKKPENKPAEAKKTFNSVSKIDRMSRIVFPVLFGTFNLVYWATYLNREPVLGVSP
T1 sequence (P28472 26-473): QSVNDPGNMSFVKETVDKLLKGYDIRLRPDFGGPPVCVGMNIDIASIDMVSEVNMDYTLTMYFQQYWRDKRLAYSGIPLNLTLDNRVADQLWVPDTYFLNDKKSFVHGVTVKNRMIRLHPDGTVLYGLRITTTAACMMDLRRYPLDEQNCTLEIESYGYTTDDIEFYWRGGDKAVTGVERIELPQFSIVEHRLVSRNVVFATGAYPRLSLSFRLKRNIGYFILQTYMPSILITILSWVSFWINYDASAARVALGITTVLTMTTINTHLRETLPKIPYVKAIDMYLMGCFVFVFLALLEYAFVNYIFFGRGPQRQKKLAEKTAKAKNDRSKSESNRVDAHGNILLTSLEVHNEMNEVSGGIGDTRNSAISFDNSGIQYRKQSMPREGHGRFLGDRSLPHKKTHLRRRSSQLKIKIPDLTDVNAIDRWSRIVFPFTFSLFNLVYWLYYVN
T1 sequence (P18507 40-467 partner limits assumed): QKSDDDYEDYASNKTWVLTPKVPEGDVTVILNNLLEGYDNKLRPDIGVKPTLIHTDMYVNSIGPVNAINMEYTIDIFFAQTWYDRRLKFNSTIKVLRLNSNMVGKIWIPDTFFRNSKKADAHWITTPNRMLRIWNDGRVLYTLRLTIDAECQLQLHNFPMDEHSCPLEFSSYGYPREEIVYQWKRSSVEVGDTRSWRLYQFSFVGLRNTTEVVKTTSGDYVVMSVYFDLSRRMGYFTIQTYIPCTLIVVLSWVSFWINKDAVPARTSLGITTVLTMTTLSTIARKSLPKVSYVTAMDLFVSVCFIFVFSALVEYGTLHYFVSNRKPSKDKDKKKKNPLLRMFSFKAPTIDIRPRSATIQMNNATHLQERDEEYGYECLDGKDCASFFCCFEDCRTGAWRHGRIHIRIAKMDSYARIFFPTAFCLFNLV
Text: (§1) (FIG. 12A) Six additions of 0.33% DMSO for 2 seconds were introduced to the cells to act as a time matched vehicle control for the agonist. (FIG. 12B) Note: The test compound was applied over two ‘experimental patterns’ in increasing concentrations. […] Time-matched negative and reference compound data are included for comparison.
[…] Aliquots were taken out and diluted 300× into external buffer to give the final assay concentration. All wells included a final DMSO concentration of 0.33% including all control wells.
(§2) All recordings were obtained from a holding potential of −60 mV. The compound addition sequence that was used for all additions was the same for all assays. […] Each test concentration of compound was applied for 2 seconds followed by 30 seconds wash. The process was repeated with the next ascending concentration of test compound up to a maximum of six concentrations per well (FIG. 14).
(§3) Peak inward currents in response to the additions of compound were measured. […] All data were first exported to an Excel compatible data file and then analyzed using Graph Pad Prism software.

[2] = target: T2, human GABA-A α1β3γ2 ion channels (Homo sapiens, UniProt P14867+P28472); experiment: Human GABA-A receptor IonFlux HT agonist assay (Cl-flux), α1β3γ2; assay type: cell-based; conditions: for Normalized Peak hGABAA α1β3γ2 Current (%) Agonist, Mean: normalized to EC100 GABA (30 μM)
T2 construct: expressed in transfected cells
T2 sequence (P14867 28-456): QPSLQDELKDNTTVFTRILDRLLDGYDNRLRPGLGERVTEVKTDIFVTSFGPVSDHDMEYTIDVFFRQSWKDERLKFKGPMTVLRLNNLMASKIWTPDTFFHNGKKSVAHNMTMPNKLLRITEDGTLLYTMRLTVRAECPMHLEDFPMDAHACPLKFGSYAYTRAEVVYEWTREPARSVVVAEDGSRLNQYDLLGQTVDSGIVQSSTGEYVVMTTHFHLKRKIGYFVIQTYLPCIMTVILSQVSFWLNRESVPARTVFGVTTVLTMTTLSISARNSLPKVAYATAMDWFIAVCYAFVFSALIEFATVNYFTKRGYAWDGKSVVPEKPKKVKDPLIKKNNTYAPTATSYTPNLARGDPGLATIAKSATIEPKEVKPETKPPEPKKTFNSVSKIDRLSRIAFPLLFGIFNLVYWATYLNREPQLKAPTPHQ
T2 sequence (P28472 26-473): T1 sequence (P28472 26-473)
T2 sequence (P18507 40-467 partner limits assumed): T1 sequence (P18507 40-467 partner limits assumed)
Procedure: as §1, with “Six” for “(FIG. 12A) Six”, “agonist.” for “agonist. (FIG. 12B)”
The supplied compounds were prepared in DMSO to concentrations that were 300× the final assay concentrations of 0.1, 0.3, 1, 3, 10, 30 and 100 μM. Aliquots were taken out and diluted 300× into external buffer to give the final assay concentration. All wells included a final DMSO concentration of 0.33% including all control wells.
as §2, §3

EC50 ([1]; GABAA receptor chloride flux assay, read-out: Estimated EC50 (μM), activation of α2β3γ2-containing GABAA receptors) | EC50 ([2]; GABAA receptor chloride flux assay, read-out: EC50, activation of α1β3γ2-containing GABAA receptors) | SMILES | Normalized Percentage Activation, Mean ([1]; 0.3 μM) | Normalized Percentage Activation, Mean ([1]; 1 μM) | Normalized Percentage Activation, Mean ([1]; 3 μM) | Normalized Percentage Activation, Mean ([1]; 10 μM) | Normalized Percentage Activation, Mean ([1]; 30 μM) | Normalized Percentage Activation, Mean ([1]; 100 μM) | Normalized Percentage Activation, Mean ([1]; 300 μM) | Normalized Percentage Activation, Mean ([1]; 1000 μM) | Normalized Peak hGABAA α1β3γ2 Current (%) Agonist, Mean ([2]; 0.1 μM) | Normalized Peak hGABAA α1β3γ2 Current (%) Agonist, Mean ([2]; 0.3 μM) | Normalized Peak hGABAA α1β3γ2 Current (%) Agonist, Mean ([2]; 1 μM) | Normalized Peak hGABAA α1β3γ2 Current (%) Agonist, Mean ([2]; 3 μM) | Normalized Peak hGABAA α1β3γ2 Current (%) Agonist, Mean ([2]; 10 μM) | Normalized Peak hGABAA α1β3γ2 Current (%) Agonist, Mean ([2]; 30 μM) | Normalized Peak hGABAA α1β3γ2 Current (%) Agonist, Mean ([2]; 100 μM) | EC50 [1] | agonism of α2β3γ2-containing GABAA receptor (in words) ([1]; hydrochloride) | agonism of α1β3γ2-containing GABAA receptor (in words) [2]
18.7 µM | 23.3 µM and 19.7 µM | O=C(O)C1=CCNCC1 [Isoguvacine, isoguvacine] | 2.09% | 4.69% | 10.43% | 32.71% | 63.48% | 85.91% | 99.01% | 100.05% | 0.55% | 1.02% | 1.92% | 4.94% | 21.18% | 53.29% | 79.91% | – | – | –
– | – | NC1C=C(C(=O)O)CCC1 (centres unmarked) [Compound 5, 3-aminocyclohex-1-enecarboxylic acid hydrochloride] | 1.42% | 1.28% | 1.23% | 1.56% | 1.48% | 1.96% | 1.77% | 1.64% | 0.58% | 0.56% | 0.58% | 0.62% | 0.79% | 0.57% | 0.49% | > 1000 µM | not an agonist; also recorded: no agonism | not an agonist

From patent US12252457B2, “Compositions and methods for reducing tactile dysfunction, anxiety, and social impairment” (President and Fellows of Harvard College, priority 2018, dated 2025)
